Measured values from ChEMBL document CHEMBL2417480, “Bioactive polyprenylated acylphloroglucinol derivatives from Hypericum cohaerens” (J Nat Prod, 2013).

Experiments:
HL-60 = test: Cytotoxicity against human HL60 cells after 48 hrs by MTT assay; details: HL-60, 48 h
SMMC-7721 = test: Cytotoxicity against human SMMC7721 cells after 48 hrs by MTT assay; details: SMMC-7721, 48 h
MCF7 = test: Cytotoxicity against human MCF7 cells after 48 hrs by MTT assay; details: MCF7, 48 h
A549 = test: Cytotoxicity against human A549 cells after 48 hrs by MTT assay; details: A549, 48 h
SW480 = test: Cytotoxicity against human SW480 cells after 48 hrs by MTT assay; details: SW480, 48 h

| Compound | IC50 (HL-60) | IC50 (SMMC-7721) | IC50 (MCF7) | IC50 (A549) | IC50 (SW480) |
| --- | --- | --- | --- | --- | --- |
| CCC(C)C(=O)[C@@]12C(=O)C(CC=C(C)C)=C3O[C@@H](C(C)(C)O)C[C@]3(C[C@H](CC=C(C)C)[C@@]1(C)CCC=C(C)C)C2=O (stereo partly drawn) | > 20 µM | > 20 µM | > 20 µM | > 20 µM | > 20 µM |
| CC(C)=CCC[C@]1(C)[C@@H](CC=C(C)C)C[C@]23C[C@@H](C(C)(C)O)OC2=C(C[C@@H]2OC(C)(C)[C@@H](CO)C2(C)C)C(=O)[C@@]1(C(=O)c1ccccc1)C3=O | 12.6 µM | 8.2 µM | > 20 µM | 17.9 µM | 9.2 µM |
| CC(C)=CCC[C@]1(C)[C@@H](CC=C(C)C)C[C@]23C[C@@H](C(C)(C)O)OC2=C(C[C@H]2OC(C)(C)[C@H](CO)C2(C)C)C(=O)[C@@]1(C(=O)C(C)C)C3=O | 8.8 µM | 9.5 µM | 9.3 µM | 5.6 µM | 7.4 µM |
| CC(C)=CCC[C@]1(C)[C@@H](CC=C(C)C)C[C@]23C[C@@H](C(C)(C)O)OC2=C(C[C@@H]2OC(C)(C)[C@@H](CO)C2(C)C)C(=O)[C@@]1(C(=O)C(C)C)C3=O | 5.8 µM | > 20 µM | 10.2 µM | 11.3 µM | 15.6 µM |
| CC(C)=CCC[C@]1(C)[C@@H](CC=C(C)C)C[C@]23C[C@@H](C(C)C)OC2=C(CC=C(C)C)C(=O)[C@@]1(C(=O)c1ccccc1)C3=O | > 20 µM | > 20 µM | > 20 µM | > 20 µM | > 20 µM |
| CCC(C)C(=O)[C@@]12C(=O)C3=C(OC(C)(C)C=C3)[C@@](CC=C(C)C)(C[C@H](CC=C(C)C)[C@@]1(C)CCC=C(C)C)C2=O (stereo partly drawn) | > 20 µM | > 20 µM | > 20 µM | > 20 µM | > 20 µM |
| CC(C)=CCC[C@]1(C)[C@@H](CC=C(C)C)C[C@]23C[C@@H](C(C)C)OC2=C(CC=C(C)C)C(=O)[C@@]1(C(=O)C(C)C)C3=O | > 20 µM | > 20 µM | > 20 µM | > 20 µM | > 20 µM |
| CC(=O)O[C@H]1C(=O)[C@@]2(C)[C@H]([C@H](OC(=O)c3ccccc3)[C@]3(O)C[C@H](OC(=O)[C@H](O)[C@@H](NC(=O)c4ccccc4)c4ccccc4)C(C)=C1C3(C)C)[C@]1(OC(C)=O)CO[C@@H]1C[C@@H]2O [PACLITAXEL] | < 0.008 µM | < 0.008 µM | < 0.008 µM | – | – |
| CC(C)=CCC[C@]1(C)[C@@H](CC=C(C)C)C[C@]23C[C@H](C(C)(C)O)OC2=C(CC=C(C)C)C(=O)[C@@]1(C(=O)C(C)C)C3=O | > 20 µM | > 20 µM | > 20 µM | > 20 µM | > 20 µM |
